pIC50: −log10 of the molar value.
Legend:
Format in all cases: cell-based
human A1 receptor = molecular target: T1, human A1 receptor (Homo sapiens, UniProt P30542); experiment: functional cAMP (HTRF) assay, recombinant CHO cells expressing human A1 receptor, forskolin, agonist CPA
T1 construct: expressed in transfected cells; host or cells: CHO
T1 sequence (P30542 1-326): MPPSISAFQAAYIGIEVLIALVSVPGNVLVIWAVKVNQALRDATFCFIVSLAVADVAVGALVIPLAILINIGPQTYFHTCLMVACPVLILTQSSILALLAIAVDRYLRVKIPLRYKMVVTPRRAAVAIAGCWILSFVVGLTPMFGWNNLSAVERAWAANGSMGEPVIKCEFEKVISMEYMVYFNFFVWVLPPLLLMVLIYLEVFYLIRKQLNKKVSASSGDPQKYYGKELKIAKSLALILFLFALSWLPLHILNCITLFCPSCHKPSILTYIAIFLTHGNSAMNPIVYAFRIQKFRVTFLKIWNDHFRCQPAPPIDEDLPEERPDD
Protocol: (§1) The functional activities of human A2A, A2B, A1 and A3 receptors were determined by quantification of cAMP, being the second messenger for adenosine receptors.
(§2) For human A1 and A3 receptors, recombinant CHO cells, expressing either A1 or A3-receptor, were used. As both receptors couple to Gi proteins, the assay protocol was adapted:
(§3) Cells were seeded into 384-well plates, forskolin, test compounds and agonists (CPA for A1- and IB-MECA for A3-receptor) were added. After 30 min incubation, HTRF reagents (cAMP dynamic 2, Cis Bio) were added and the cellular cAMP levels were determined using the ENVISION (Perkin Elmer) plate reader. Obtained raw data were normalized against the inhibitor control and the neural control (DMSO) and the normalized data were fitted using GeneData software.

human A3 receptor = molecular target: T2, human A3 receptor (Homo sapiens, UniProt P0DMS8); experiment: functional cAMP (HTRF) assay, recombinant CHO cells expressing human A3 receptor, forskolin, agonist IB-MECA
T2 construct: expressed in transfected cells; host or cells: CHO
T2 sequence (P0DMS8 1-318): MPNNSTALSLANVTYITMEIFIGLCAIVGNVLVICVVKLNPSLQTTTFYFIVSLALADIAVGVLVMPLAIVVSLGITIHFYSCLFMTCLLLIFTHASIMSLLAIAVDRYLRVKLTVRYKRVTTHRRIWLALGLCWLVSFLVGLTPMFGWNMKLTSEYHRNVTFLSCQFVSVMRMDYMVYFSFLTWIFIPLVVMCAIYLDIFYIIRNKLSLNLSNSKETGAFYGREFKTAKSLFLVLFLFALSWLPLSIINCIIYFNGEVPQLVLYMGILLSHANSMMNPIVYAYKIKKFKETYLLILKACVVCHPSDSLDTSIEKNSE
Protocol: as §1, §2, §3

A2B receptors = molecular target: T3, A2B receptors (Homo sapiens, UniProt P29275); experiment: functional cAMP (HTRF) assay, recombinant HEK293 cells expressing human A2B receptor, agonist NECA; design: expressed in transfected cells; host or cells: HEK293
T3 sequence (P29275 1-332): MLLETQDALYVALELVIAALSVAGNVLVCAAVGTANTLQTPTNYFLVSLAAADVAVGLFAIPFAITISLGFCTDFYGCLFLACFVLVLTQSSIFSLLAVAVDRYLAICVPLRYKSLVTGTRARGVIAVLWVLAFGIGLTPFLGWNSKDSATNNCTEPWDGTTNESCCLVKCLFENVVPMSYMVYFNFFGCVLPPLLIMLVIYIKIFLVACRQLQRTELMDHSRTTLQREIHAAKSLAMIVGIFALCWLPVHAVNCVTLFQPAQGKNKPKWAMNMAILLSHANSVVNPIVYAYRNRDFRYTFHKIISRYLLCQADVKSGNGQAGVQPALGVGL

human A2A receptor = molecular target: T4, human A2A receptor (Homo sapiens, UniProt P29274); experiment: functional cAMP (HTRF) assay, recombinant HEK293 cells expressing human A2A receptor, agonist NECA
T4 construct: expressed in transfected cells; host or cells: HEK293
T4 sequence (P29274 whole entry): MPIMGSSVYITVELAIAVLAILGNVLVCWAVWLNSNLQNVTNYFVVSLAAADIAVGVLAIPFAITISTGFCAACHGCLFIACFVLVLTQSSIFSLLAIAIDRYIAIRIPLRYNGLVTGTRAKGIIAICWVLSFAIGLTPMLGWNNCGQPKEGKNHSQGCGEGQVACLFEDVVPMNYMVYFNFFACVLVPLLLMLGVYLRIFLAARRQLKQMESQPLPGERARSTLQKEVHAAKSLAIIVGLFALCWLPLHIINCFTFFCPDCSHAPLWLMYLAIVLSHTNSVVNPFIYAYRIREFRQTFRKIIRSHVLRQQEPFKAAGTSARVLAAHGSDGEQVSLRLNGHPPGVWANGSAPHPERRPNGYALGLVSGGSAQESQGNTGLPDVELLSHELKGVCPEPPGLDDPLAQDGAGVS

| SMILES | pIC50 (human A1 receptor) | pIC50 (human A3 receptor) | pIC50 (A2B receptors) | pIC50 (human A2A receptor) |
| --- | --- | --- | --- | --- |
| COc1ccc(C2CCOCC2)c2nc(NC(=O)c3ccnc(N4CCC5(CCOC5)C4)c3)[nH]c12 (stereo not drawn) [compound 119, N-[7-methoxy-4-(oxan-4-yl)-1H-1,3-benzodiazol-2-yl]-2-{2-oxa-7-azaspiro[4.4]nonan-7-yl}pyridine-4-carboxamide] | < 6.00 | < 6.00 | < 6.00 | > 8.00 |
| COc1ccc(-c2cnn(C3CN(C(=O)OC(C)(C)C)C3)c2)c2[nH]c(NC(=O)N3CCC(C)(O)CC3)nc12 [compound 245, tert-butyl 3-(4-{2-[(4-hydroxy-4-methylpiperidine-1-carbonyl)amino]-4-methoxy-1H-1,3-benzodiazol-7-yl}-1H-pyrazol-1-yl)azetidine-1-carboxylate] | < 6.00 | < 6.00 |  | > 7.00 |
| COc1ccc(-c2cnn(-c3ccccn3)c2)c2[nH]c(NC(=O)N3CCC(C)(O)CC3)nc12 [compound 231, 4-hydroxy-N-{4-methoxy-7-[1-(pyridin-2-yl)-1H-pyrazol-4-yl]-1H-1,3-benzodiazol-2-yl}-4-methylpiperidine-1-carboxamide] | > 6.00 | > 6.00 |  | > 7.00 |
| COCCOCCn1cc(-c2ccc(OC)c3nc(NC(=O)N4CCC(C)(O)CC4)[nH]c23)cn1 [compound 230, 4-hydroxy-N-(4-methoxy-7-{1-[2-(2-methoxyethoxy)ethyl]-1H-pyrazol-4-yl}-1H-1,3-benzodiazol-2-yl)-4-methylpiperidine-1-carboxamide] | < 6.00 | < 6.00 |  | > 7.00 |
| CCCC(CC)c1ccc(OC)c2[nH]c(NC(=O)c3cnn(C)c3)nc12 (stereo not drawn) [compound 233, N-[4-(hexan-3-yl)-7-methoxy-1H-1,3-benzodiazol-2-yl]-1-methyl-1H-pyrazole-4-carboxamide] | < 6.00 | > 8.00 |  | > 7.00 |
| COc1ccc(-c2cnn(C(F)F)c2)c2nc(NC(=O)N3CCC(C)(O)CC3)[nH]c12 [compound 229, N-{7-[1-(difluoromethyl)-1H-pyrazol-4-yl]-4-methoxy-1H-1,3-benzodiazol-2-yl}-4-hydroxy-4-methylpiperidine-1-carboxamide] | < 6.00 | < 6.00 |  | > 7.00 |
| COc1ccc(C2CCOCC2)c2nc(NC(=O)C3(C#N)CC3)[nH]c12 [compound 226, 1-cyano-N-[7-methoxy-4-(oxan-4-yl)-1H-1,3-benzodiazol-2-yl]cyclopropane-1-carboxamide] | < 6.00 | < 6.00 |  | > 7.00 |
| COc1ccc(N2CCCCCC2)c2nc(NC(=O)N3CCC(C)(O)CC3)[nH]c12 [compound 216, N-[4-(azepan-1-yl)-7-methoxy-1H-1,3-benzodiazol-2-yl]-4-hydroxy-4-methylpiperidine-1-carboxamide] | < 6.00 | < 6.00 |  | > 7.00 |
| COCCOc1cccc(-c2ccc(OC)c3nc(NC(=O)c4c[nH]cn4)[nH]c23)c1 [compound 267, N-{4-methoxy-7-[3-(2-methoxyethoxy)phenyl]-1H-1,3-benzodiazol-2-yl}-1H-imidazole-4-carboxamide] | > 6.00 |  | > 8.00 | > 8.00 |
| COc1ccc(C2CCOCC2)c2nc(NC(=O)c3cnc(C)o3)[nH]c12 [compound 234, N-[7-methoxy-4-(oxan-4-yl)-1H-1,3-benzodiazol-2-yl]-2-methyl-1,3-oxazole-5-carboxamide] | < 6.00 | > 6.00 |  | > 8.00 |
| COc1ccc(-c2cnn(C3CCOC3)c2)c2nc(NC(=O)N3CCC(C)(O)CC3)[nH]c12 (stereo not drawn) [compound 241, 4-hydroxy-N-{4-methoxy-7-[1-(oxolan-3-yl)-1H-pyrazol-4-yl]-1H-1,3-benzodiazol-2-yl}-4-methylpiperidine-1-carboxamide] | < 6.00 | < 6.00 |  | > 7.00 |
| COc1ccc(-c2ccccc2)c2nc(NC(=O)c3cnc(N)s3)[nH]c12 [compound 258, 2-amino-N-(7-methoxy-4-phenyl-1H-1,3-benzodiazol-2-yl)-1,3-thiazole-5-carboxamide] | > 6.00 |  | > 8.00 | > 8.00 |
| COc1ccc(-c2ccnc3[nH]ccc23)c2[nH]c(NC(=O)N3CCC(C)(O)CC3)nc12 [compound 270, 4-hydroxy-N-(7-methoxy-4-{1H-pyrrolo[2,3-b]pyridin-4-yl}-1H-1,3-benzodiazol-2-yl)-4-methylpiperidine-1-carboxamide] | < 6.00 | < 6.00 |  | > 7.00 |
| CCCC1(c2ccc(OC)c3[nH]c(NC(=O)c4cnn(C)c4)nc23)CC1 [compound 232, N-[7-methoxy-4-(1-propylcyclopropyl)-1H-1,3-benzodiazol-2-yl]-1-methyl-1H-pyrazole-4-carboxamide] | < 6.00 | > 6.00 |  | > 7.00 |
| COc1ccc(-c2cccc3c2CCN3)c2nc(NC(=O)N3CCC(C)(O)CC3)[nH]c12 [compound 292, N-[4-(2,3-dihydro-1H-indol-4-yl)-7-methoxy-1H-1,3-benzodiazol-2-yl]-4-hydroxy-4-methylpiperidine-1-carboxamide] | > 8.00 | < 6.00 |  | > 7.00 |
| COc1ccc(-c2ccccc2)c2nc(NC(=O)c3cnc(C)s3)[nH]c12 [compound 257, N-(7-methoxy-4-phenyl-1H-1,3-benzodiazol-2-yl)-2-methyl-1,3-thiazole-5-carboxamide] | > 6.00 |  | > 8.00 | > 8.00 |

Now from value to compound:

| pIC50 (human A1 receptor) | pIC50 (human A3 receptor) | pIC50 (A2B receptors) | pIC50 (human A2A receptor) | SMILES |
| --- | --- | --- | --- | --- |
| > 6.00 | < 6.00 | < 6.00 | > 8.00 | COc1ccc(-c2cnn(CCC(C)C)c2)c2nc(NC(=O)N3CCC(C)(O)CC3)[nH]c12 [compound 151, 4-hydroxy-N-{7-methoxy-4-[1-(3-methylbutyl)-1H-pyrazol-4-yl]-1H-1,3-benzodiazol-2-yl}-4-methylpiperidine-1-carboxamide] |
| < 6.00 | > 6.00 | < 6.00 | > 8.00 | COc1ccc(-c2cnn(C)c2)c2nc(NC(=O)c3ccc(CN4CCN(C)CC4)cc3)[nH]c12 [compound 168, N-[7-methoxy-4-(1-methyl-1H-pyrazol-4-yl)-1H-1,3-benzodiazol-2-yl]-4-[(4-methylpiperazin-1-yl)methyl]benzamide] |
| < 6.00 | < 6.00 | < 6.00 | > 8.00 | COc1ccc(-c2cnn(C)c2)c2nc(NC(=O)c3ccc(CN(C)C)cc3)[nH]c12 [compound 48, 4-[(dimethylamino)methyl]-N-[7-methoxy-4-(1-methyl-1H-pyrazol-4-yl)-1H-1,3-benzodiazol-2-yl]benzamide] |
| > 6.00 | > 6.00 | > 6.00 | > 8.00 | COc1ccc(-c2cnn(C)c2)c2nc(NC(=O)c3ccc4c(c3)CCO4)[nH]c12 [compound 101, N-[7-methoxy-4-(1-methyl-1H-pyrazol-4-yl)-1H-1,3-benzodiazol-2-yl]-2,3-dihydro-l-benzofuran-5-carboxamide] |
| < 6.00 | > 6.00 | > 7.00 | > 7.00 | COCCn1cc(C(=O)Nc2nc3c(-c4ccnc5[nH]ccc45)ccc(OC)c3[nH]2)cn1 [compound 278, N-(7-methoxy-4-{1H-pyrrolo[2,3-b]pyridin-4-yl}-1H-1,3-benzodiazol-2-yl)-1-(2-methoxyethyl)-1H-pyrazole-4-carboxamide] |
| < 6.00 |  | > 7.00 | > 8.00 | COc1ccc(-c2ccccc2)c2nc(NC(=O)c3ccc(CCl)cc3)[nH]c12 [compound 10, 4-Chloromethyl-N-(7-methoxy-4-phenyl-1H-benzoimidazol-2-yl)-benzamide] |
| < 6.00 | < 6.00 |  | > 7.00 | COc1ccc(-c2ccc3c(cnn3C)c2)c2nc(NC(=O)N3CCC(C)(O)CC3)[nH]c12 [compound 273, 4-hydroxy-N-[7-methoxy-4-(1-methyl-1H-indazol-5-yl)-1H-1,3-benzodiazol-2-yl]-4-methylpiperidine-1-carboxamide] |

— patent US11453647B2, “Benzimidazole derivatives as adenosine receptor antagonists” (Merck Patent GmbH, priority 2017, dated 2022)
